# Columns and labels:
# Type in all cases: cell-based, human
# IL12B = test: RNA sequencing in PBMCs, IL12B gene expression; details: PBMCs of 3 donors, 0.5 g/l HMO, 6 h, Polymyxin B as control, FIG. 3
# Experimental: (§1) Peripheral blood mononuclear cells (PBMCs) were isolated from a buffy coat using Sepmate tubes. The cells were diluted to a concentration of 1*10^7 cells per ml. The PBMC's were seeded in 6 wells plates and treated with 0.5 g/l of each HMO in PBMC culturing medium for 6 h prior to RNA isolation. Each human milk oligosaccharide (HMO) was mixed with 100 ug/ml (microgram/milliliter) final concentration of Polymyxin B to ensure neutralization of possible endotoxin contamination of HMOs, while equal amounts of Polymyxin B were used as a control. As a positive control HMOs isolated from pooled human milk sample were used. Single HMOs were purchased from BOC Sciences.
# (§2) 2500 ng RNA, isolated from PBMCs of 3 donors, was translated into cDNA, using the quantitect reverse transcription kit (Qiagen). RNA sequencing and analysis was performed by use of the NOVOGENE platform according to standard procedures. Gene expression is shown for CSF3, CD25 (IL2RA), IL12B and IL23A as regulated by the pool of HMOs as isolated from human milk (pHMOs), LNFP-III, LSTa and DSLNT.
# as §1, with “PBMC's from 3 donors” for “Peripheral blood mononuclear cells (PBMCs)”, “HMO” for “human milk oligosaccharide (HMO)”, “ug/ml” for “ug/ml (microgram/milliliter)”
# as §2, with “from PBMCs,” for “from PBMCs of 3 donors,”, “expression was” for “expression is”
# FoxP3 = test: Intracellular staining of transcription factors in PBMCs (FACS), FoxP3; details: PBMC, single HMOs and total pool of HMO; method not given
# Experimental: (§3) For intracellular staining PBMCs from 3 donors were incubated with the mentioned HMOs (0.5 g/1) for 24 h prior to analysis. In a 96-wells plate 5*10^5 PBMCs were pelleted at 300 g for 4 minutes. Subsequently, the cells were blocked using 25 μL of blocking buffer (Human BD Fc Block™,BD) and incubated for 10 minutes at room temperature. Then, 25 μL of anti-CD4 FITC (555346, BD) and anti-CD3 APC (555335, BD) were added to each test. The cells were incubated 30 minutes on ice. After the cells were washed twice with Stain Buffer (FBS) (554657, BD) an intracellular staining for the transcription factors was performed by the Transcription Factor Buffer Set (562574, BD). FoxP3 PE (560852, BD) and RORγT PE (563081, BD) were used. Cells were analyzed with FACS (Easycyte 8HT). Expression of FoxP3 and RORγT was analyzed in the CD4-positive cells.
# PBMC's from 3 donors were isolated from a buffy coat using Sepmate tubes. The cells were diluted to a concentration of 1*10^7 cells per ml. The PBMC's were seeded in 6 wells plates and treated with 0.5 g/l of 2′-FL or a mix of LNFP-III with LSTa 1:1 w/v in PBMC culturing medium for 24 h. Cells incubated with no HMOs were used as control. For Fluorescence Activated Cell Sorting (FACS), 5*10^5 PBMCs were pelleted at 300 g for 4 minutes in a 96-well plate.
# as §3, with “Subsequently,” for “For intracellular staining PBMCs from 3 donors were incubated with the mentioned HMOs (0.5 g/1) for 24 h prior to analysis. In a 96-wells plate 5*10^5 PBMCs were pelleted at 300 g for 4 minutes. Subsequently,”, “8HT).” for “8HT). Expression of FoxP3 and RORγT was analyzed in the CD4-positive cells.”
# Interleukin-10 (IL-10) = test: Cytokine analysis (Cytometric Bead Array) in PBMC supernatant, IL-10; details: for effect on the expression of IL10 (summary statement): PBMC, single HMOs and total pool of HMO, method not given
# Experimental: BD™ Cytometric Bead Array (CBA) Human Th1/Th2/Th17 Cytokine Kit (560484, BD) was used to measure Interleukin-6 (IL-6) and Interleukin-10 (IL-10) protein levels in supernatant following the manufacturer's instructions. After acquiring samples on the FACS (Easycyte 8HT), the FCAP Array™ software was used to determine cytokine concentrations.
# PBMC's from 3 donors were isolated from a buffy coat using Sepmate tubes. The cells were diluted to a concentration of 1*10^7 cells per ml. The PBMC's were seeded in 6 wells plates and treated with 0.5 g/l of 2′-FL or a mix of LNFP-III with LSTa 1:1 w/v in PBMC culturing medium for 24 h. Cells incubated with no HMOs were used as control. The supernatants from these cultures were collected and BD™ Cytometric Bead Array (CBA) Human Th1/Th2/Th17 Cytokine Kit (560484, BD) was used to measure Interleukin-6 (IL-6) and Interleukin-10 (IL-10) protein levels in supernatant following the manufacturer's instructions. After acquiring samples on the FACS (Easycyte 8HT), the FCAP Array™ software was used to determine cytokine concentrations.
# IL23A = test: RNA sequencing in PBMCs, IL23A gene expression; details: PBMCs of 3 donors, 0.5 g/l HMO, 6 h, Polymyxin B as control, FIG. 4
# Experimental: as §1, §2
# (§4) PBMC's from 3 donors were isolated from a buffy coat using Sepmate tubes. The cells were diluted to a concentration of 1*10^7 cells per ml. […]
# (§5) 2500 ng RNA, isolated from PBMCs, was translated into cDNA, using the quantitect reverse transcription kit (Qiagen). […]
# CD25 (IL2RA) = test: RNA sequencing in PBMCs, CD25 (IL2RA) gene expression; details: PBMCs of 3 donors, 0.5 g/l HMO, 6 h, Polymyxin B as control, FIG. 2
# Experimental: as §1, §2
# as §1, with “PBMC's from 3 donors” for “Peripheral blood mononuclear cells (PBMCs)”, “HMO” for “human milk oligosaccharide (HMO)”, “ug/ml” for “ug/ml (microgram/milliliter)”
# as §2, with “from PBMCs,” for “from PBMCs of 3 donors,”, “expression was” for “expression is”
# Interleukin-6 (IL-6) = test: Cytokine analysis (Cytometric Bead Array) in PBMC supernatant, IL-6; details: PBMCs of 3 donors, 0.5 g/l, 24 h, FIG. 8, compared with control
# Experimental: BDTM Cytometric Bead Array (CBA) Human Th1/Th2/Th17 Cytokine Kit (560484, BD) was used to measure Interleukin-6 (IL-6) and Interleukin-10 (IL-10) protein levels in supernatant following the manufacturer's instructions. After acquiring samples on the FACS (Easycyte 8HT), the FCAP ArrayTM software was used to determine cytokine concentrations. PBMC's from 3 donors were isolated from a buffy coat using Sepmate tubes. The cells were diluted to a concentration of 1*10^7 cells per ml. The PBMC's were seeded in 6 wells plates and treated with 0.5 g/l of 2'-FL or a mix of […] in PBMC culturing medium for 24 h. Cells incubated with no HMOs were used as control. The supernatants from these cultures were collected and BDTM Cytometric Bead Array (CBA) Human Th1/Th2/Th17 Cytokine Kit (560484, BD) was used to measure Interleukin-6 (IL-6) and Interleukin-10 (IL-10) protein levels in supernatant following the manufacturer's instructions. After acquiring samples on the FACS (Easycyte 8HT), the FCAP ArrayTM software was used to determine cytokine concentrations.
# CSF3 = test: RNA sequencing in PBMCs, CSF3 gene expression; details: PBMCs of 3 donors, 0.5 g/l HMO, 6 h, Polymyxin B as control, FIG. 1
# Experimental: as §1, §2, §4, §5
Molecule,expression of IL12B (IL12B),effect on the expression of FoxP3 (summary statement) (FoxP3),effect on the expression of IL10 (summary statement) (Interleukin-10 (IL-10)),expression of IL23A (IL23A),expression of CD25 (CD25 (IL2RA)),"expression of IL6, result in words (Interleukin-6 (IL-6))","expression of IL10 (protein level in supernatant) (Interleukin-10 (IL-10); PBMCs of 3 donors, 0.5 g/l, 24 h, FIG. 7, mixture value is average)",relative expression of CSF3 (CSF3)
β-D-Gal-(1→4)-[α-L-Fuc-(1→3)]-β-D-GlcNAc-(1→3)-β-D-Gal-(1→4)-D-Glc [LNFP III],about 2.5,increase,increase,about 4.3,around 5.8,–,–,–
"2′-fucosyllactose [2′FL, reference compound]",–,no effect,no effect,–,–,no expression,less than 3 pg/ml,–
"CC(=O)N[C@H]1[C@H](O[C@H]2[C@@H](O)[C@@H](CO)O[C@@H](O[C@H]3[C@H](O)[C@@H](O)C(O)O[C@@H]3CO)[C@@H]2O)O[C@H](CO)[C@@H](O)[C@@H]1O[C@@H]1O[C@H](CO)[C@H](O)[C@H](O[C@]2(C(=O)O)C[C@H](O)[C@@H](NC(C)=O)[C@H]([C@H](O)[C@H](O)CO)O2)[C@H]1O (stereo partly drawn) [LSTa, α-Neu5Ac-(2→3)-β-D-Gal-(1→3)-β-D-GlcNAc-(1→3)-β-D-Gal-(1→4)-Glc]",about 3,increase,increase,about 4.4,around 6.3,–,–,–
α-Neu5Ac-(2→3)-β-D-Gal-(1→3)-[α-Neu5Ac-(2→6)]-β-D-GlcNAc-(1→3)-β-D-Gal-(1→4)-Glc [DSLNT],about 2.5,–,–,–,around 5.5,–,–,around 4
